In US7348427B2, “Antipathogenic benzamide compounds” (Genesoft Pharmaceuticals, Inc., priority 2001, dated 2008):

How the values were obtained:
[1] = test system: Bacillus cereus (ATCC 11778); assay: MIC, NCCLS broth microdilution assay; assay type: cell-based; conditions: A = B. cereus ATCC 11778; for MIC: Bacillus cereus, ATCC11778, read-out: Minimum Inhibitory Concentration (MIC)
Procedure, shortened: (§1)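 Minimal inhibitory concentration is reported, obtained by the NCCLS broth microdilution method (documents M7-A4, M11-A4, M27-T). For the fungal strain, the procedure of the 1995 Manual of Clinical Microbiology applies.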

[2] = test system: Enterococcus faecium (ATCC 51559, a vancomycin resistant strain (VRE)); assay: MIC, NCCLS broth microdilution assay; assay type: cell-based; conditions: D = E. faecium ATCC 51559
Procedure, shortened: as §1

[3] = test system: Staphylococcus aureus (ATCC 27660, a methicillin resistant strain (MRSA)); assay: MIC, NCCLS broth microdilution assay; assay type: cell-based; conditions: F = S. aureus ATCC 27660; for MIC: Staphylococcus aureus, read-out: Minimum Inhibitory Concentration (MIC)
Procedure, shortened: as §1

[4] = test system: Staphylococcus epidermidis (ATCC 12228); assay: MIC, NCCLS broth microdilution assay; assay type: cell-based; conditions: G = S. epidermidis ATCC 12228
Procedure, shortened: as §1

[5] = test system: Candida albicans (ATCC 38247); assay: Antifungal MIC assay; assay type: cell-based; conditions: B = C. albicans ATCC 38247; for MIC: Candida albicans, ATCC38247, read-out: Minimum Inhibitory Concentration (MIC)
Procedure, shortened: as §1

E. faecalis ATCC 29212 = assay: MIC, NCCLS broth microdilution assay; assay type: cell-based, Enterococcus faecalis; conditions: C = E. faecalis ATCC 29212; for MIC: Enterococcus faecalis, ATCC29212, read-out: Minimum Inhibitory Concentration (MIC)
Procedure, shortened: (§2)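 MICs were determined by NCCLS broth microdilution following documents M7-A4 and M11-A4 (1997).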

[6] = test system: Staphylococcus aureus (ATCC 13709, a methicillin sensitive strain (MSSA)); assay: MIC, NCCLS broth microdilution assay; assay type: cell-based; conditions: E = S. aureus ATCC 13709; for MIC: Staphylococcus aureus, read-out: Minimum Inhibitory Concentration (MIC)
Procedure, shortened: as §1

[7] = test system: Streptococcus pneumoniae (ATCC 51422, a penicillin resistant strain (PRSP)); assay: MIC, NCCLS broth microdilution assay; assay type: cell-based; conditions: I = S. pneumoniae ATCC 51422
Procedure, shortened: as §1

S. pneumoniae ATCC 49619 = assay: MIC, NCCLS broth microdilution assay; assay type: cell-based, Streptococcus pneumoniae; conditions: H = S. pneumoniae ATCC 49619; for MIC: Streptococcus pneumoniae, ATCC49619, read-out: Minimum Inhibitory Concentration (MIC)
Procedure, shortened: as §2

Cn1cc(NC(=O)c2cc(NC(=O)c3cc(NC(=O)c4cc(NC(=O)c5ccc(F)cc5F)c[nH]4)cn3C)cn2C)cc1C(=O)NCCN1CCOCC1 [Compound A-2]
>32 µg/mL: Minimum Inhibitory Concentration (MIC) [5]
+++ (+++ = MIC ≦ 4): Minimum Inhibitory Concentration (MIC) [1]
++ (++ = 4 < MIC < 12): Minimum Inhibitory Concentration (MIC) (E. faecalis ATCC 29212)
+ (+ = 12 ≦ MIC ≦ 32): Minimum Inhibitory Concentration (MIC) [2] | Minimum Inhibitory Concentration (MIC) [3] | Minimum Inhibitory Concentration (MIC) [4]

Cn1cc(NC(=O)c2cc(NC(=O)c3cc(NC(=O)c4ccc(F)cc4F)c[nH]3)cn2C)cc1C(=O)NCCc1ccncc1 [Compound A-7]
>32 µg/mL: Minimum Inhibitory Concentration (MIC) [5]
+++ (+++ = MIC ≦ 4): Minimum Inhibitory Concentration (MIC) [1] | Minimum Inhibitory Concentration (MIC) [2] | Minimum Inhibitory Concentration (MIC) [6] | Minimum Inhibitory Concentration (MIC) [3] | Minimum Inhibitory Concentration (MIC) [4] | Minimum Inhibitory Concentration (MIC) [7] | Minimum Inhibitory Concentration (MIC) (E. faecalis ATCC 29212) | Minimum Inhibitory Concentration (MIC) (S. pneumoniae ATCC 49619)

Cn1cc(NC(=O)c2cc(NC(=O)c3cc(NC(=O)c4ccc(F)cc4F)c[nH]3)cn2C)cc1C(=O)NCCN1CCC(F)(F)CC1 [Compound A-12]
>32 µg/mL: Minimum Inhibitory Concentration (MIC) [5]
+ (+ = 12 ≦ MIC ≦ 32): Minimum Inhibitory Concentration (MIC) [3]
+++ (+++ = MIC ≦ 4): Minimum Inhibitory Concentration (MIC) [1] | Minimum Inhibitory Concentration (MIC) [2] | Minimum Inhibitory Concentration (MIC) [6] | Minimum Inhibitory Concentration (MIC) [4] | Minimum Inhibitory Concentration (MIC) [7] | Minimum Inhibitory Concentration (MIC) (E. faecalis ATCC 29212) | Minimum Inhibitory Concentration (MIC) (S. pneumoniae ATCC 49619)

CN(C)CCCNC(=O)c1cc(NC(=O)c2cc(NC(=O)c3cc(NC(=O)c4ccc(Cl)cc4F)c[nH]3)cn2C)cn1C [Compound A-13]
+++ (+++ = MIC ≦ 4): Minimum Inhibitory Concentration (MIC) [1] | Minimum Inhibitory Concentration (MIC) [6] | Minimum Inhibitory Concentration (MIC) [3] | Minimum Inhibitory Concentration (MIC) [4] | Minimum Inhibitory Concentration (MIC) [7] | Minimum Inhibitory Concentration (MIC) [5] | Minimum Inhibitory Concentration (MIC) (S. pneumoniae ATCC 49619)
++ (++ = 4 < MIC < 12): Minimum Inhibitory Concentration (MIC) (E. faecalis ATCC 29212)
+ (+ = 12 ≦ MIC ≦ 32): Minimum Inhibitory Concentration (MIC) [2]

CCN(CC)CCNC(=O)c1cc(NC(=O)c2cc(NC(=O)c3cc(NC(=O)c4ccc(Cl)cc4F)c[nH]3)cn2C)cn1C [Compound A-16]
+++ (+++ = MIC ≦ 4): Minimum Inhibitory Concentration (MIC) [1] | Minimum Inhibitory Concentration (MIC) [2] | Minimum Inhibitory Concentration (MIC) [6] | Minimum Inhibitory Concentration (MIC) [3] | Minimum Inhibitory Concentration (MIC) [4] | Minimum Inhibitory Concentration (MIC) [7] | Minimum Inhibitory Concentration (MIC) [5] | Minimum Inhibitory Concentration (MIC) (E. faecalis ATCC 29212) | Minimum Inhibitory Concentration (MIC) (S. pneumoniae ATCC 49619)

Cn1cc(NC(=O)c2cc(NC(=O)c3ccc(Cl)cc3F)c[nH]2)cc1C(=O)NCCN1CCCCC1 [Compound A-18]
>32 µg/mL: Minimum Inhibitory Concentration (MIC) [5]
+++ (+++ = MIC ≦ 4): Minimum Inhibitory Concentration (MIC) [1] | Minimum Inhibitory Concentration (MIC) [2] | Minimum Inhibitory Concentration (MIC) [6] | Minimum Inhibitory Concentration (MIC) [3] | Minimum Inhibitory Concentration (MIC) [4] | Minimum Inhibitory Concentration (MIC) [7] | Minimum Inhibitory Concentration (MIC) (E. faecalis ATCC 29212) | Minimum Inhibitory Concentration (MIC) (S. pneumoniae ATCC 49619)

Cn1cc(NC(=O)c2cc(NC(=O)c3ccc(Cl)cc3F)c[nH]2)cc1C(=O)NCCN1CCSCC1 [Compound A-21]
>32 µg/mL: Minimum Inhibitory Concentration (MIC) [5]
+++ (+++ = MIC ≦ 4): Minimum Inhibitory Concentration (MIC) [1] | Minimum Inhibitory Concentration (MIC) [2] | Minimum Inhibitory Concentration (MIC) [6] | Minimum Inhibitory Concentration (MIC) [3] | Minimum Inhibitory Concentration (MIC) [4] | Minimum Inhibitory Concentration (MIC) [7] | Minimum Inhibitory Concentration (MIC) (E. faecalis ATCC 29212) | Minimum Inhibitory Concentration (MIC) (S. pneumoniae ATCC 49619)

Cn1cc(NC(=O)c2cc(NC(=O)c3ccc(F)cc3)cn2C)cc1C(=O)NCCN1CCOCC1 [Compound B-36]
+ (+ = 12 ≦ MIC ≦ 32): Minimum Inhibitory Concentration (MIC) [2] | Minimum Inhibitory Concentration (MIC) (S. pneumoniae ATCC 49619)
>32 µg/mL: Minimum Inhibitory Concentration (MIC) [1] | Minimum Inhibitory Concentration (MIC) [6] | Minimum Inhibitory Concentration (MIC) [3] | Minimum Inhibitory Concentration (MIC) [7] | Minimum Inhibitory Concentration (MIC) [5] | Minimum Inhibitory Concentration (MIC) (E. faecalis ATCC 29212)

Cc1cc(NC(=O)c2cc(NC(=O)c3cc(NC(=O)c4ccc(F)cc4F)c[nH]3)cn2CCN2CCOCC2)sn1 [Compound D-4]
+++ (+++ = MIC ≦ 4): Minimum Inhibitory Concentration (MIC) [7]
>32 µg/mL: Minimum Inhibitory Concentration (MIC) [1] | Minimum Inhibitory Concentration (MIC) [6] | Minimum Inhibitory Concentration (MIC) [3] | Minimum Inhibitory Concentration (MIC) [5] | Minimum Inhibitory Concentration (MIC) (E. faecalis ATCC 29212) | Minimum Inhibitory Concentration (MIC) (S. pneumoniae ATCC 49619)

Cc1cc(NC(=O)c2cc(NC(=O)c3cc(NC(=O)c4ccc(Cl)cc4)cn3C)cn2CCN2CCOCC2)sn1 [Compound D-28]
>32 µg/mL: Minimum Inhibitory Concentration (MIC) [5]
+ (+ = 12 ≦ MIC ≦ 32): Minimum Inhibitory Concentration (MIC) [1] | Minimum Inhibitory Concentration (MIC) [6] | Minimum Inhibitory Concentration (MIC) [3] | Minimum Inhibitory Concentration (MIC) (E. faecalis ATCC 29212)
+++ (+++ = MIC ≦ 4): Minimum Inhibitory Concentration (MIC) (S. pneumoniae ATCC 49619)

Cn1cc(NC(=O)c2cc(NC(=O)c3ccc(F)cc3F)no2)cc1C(=O)NCCN1CCOCC1 [Compound E-3]
+ (+ = 12 ≦ MIC ≦ 32): Minimum Inhibitory Concentration (MIC) [1] | Minimum Inhibitory Concentration (MIC) [3] | Minimum Inhibitory Concentration (MIC) (E. faecalis ATCC 29212) | Minimum Inhibitory Concentration (MIC) (S. pneumoniae ATCC 49619)
>32 µg/mL: Minimum Inhibitory Concentration (MIC) [6] | Minimum Inhibitory Concentration (MIC) [5]

Cn1cc(NC(=O)c2cc(NC(=O)c3cc(NC(=O)c4ccc(F)cc4F)no3)cn2C)cc1C(=O)NCCN1CCOCC1 [Compound E-8]
> 32 µg/mL: MIC [5]
≤ 4 µg/mL: MIC [6] | MIC [3] | MIC (E. faecalis ATCC 29212) | MIC (S. pneumoniae ATCC 49619)
12 to 32 µg/mL: MIC [1]

Cn1cc(NC(=O)c2cc(NC(=O)c3cnc(NC(=O)c4ccc(F)cc4F)s3)cn2C)cc1C(=O)NCCN1CCOCC1 [Compound E-9]
12 to 32 µg/mL: MIC (E. faecalis ATCC 29212) | MIC (S. pneumoniae ATCC 49619)
> 32 µg/mL: MIC [1] | MIC [6] | MIC [3] | MIC [5]
